Source: the NIST ThermoML archive (doi:10.1016/j.jct.2015.12.031)

How the values were obtained:
[1] = refractive index (Na D-line) (dimensionless); mn = molality of the nth substance listed, in mol/kg; details: 86.5 kPa, Liquid, Standard Abbe refractometry
[2] = mn = molality of the nth substance listed, in mol/kg; details: 86.5 kPa, Liquid; for speed of sound: Frequency=3 MHz, Sing-around technique in a fixed-path interferometer; for mass density: Vibrating tube method

CCCCCCn1cc[n+](C)c1.[Br-] [3-hexyl-1-methyl-1H-imidazolium bromide] + c1ccsc1
Details	mass density, [2] [kg/m3]	refractive index, [1]	speed of sound, [2] [m/s]
288.15 K, m2 = 0	1231.02	1.5282	1639.4
288.15 K, m2 = 0.0186	1230.37	1.5277	1638.2
288.15 K, m2 = 0.0221	1230.25	1.5276	1638
288.15 K, m2 = 0.0358	1229.81	1.5273	1637.2
288.15 K, m2 = 0.0433	1229.58	1.5271	1636.8
288.15 K, m2 = 0.0632	1228.97	1.5266	1635.7
288.15 K, m2 = 0.0727	1228.69	1.5264	1635.2
288.15 K, m2 = 0.0952	1228.1	1.5259	1634
288.15 K, m2 = 0.1142	1227.69	1.5255	1633
288.15 K, m2 = 0.137	1227.21	1.5251	1631.7
288.15 K, m2 = 0.1603	1226.74	1.5247	1630.7
288.15 K, m2 = 0.1869	1226.31	1.5242	1629.8
293.15 K, m2 = 0	1227.43	1.5268	1610.4
293.15 K, m2 = 0.0186	1226.77	1.5261	1609.5
293.15 K, m2 = 0.0221	1226.65	1.526	1609.3
293.15 K, m2 = 0.0358	1226.19	1.5257	1608.7
293.15 K, m2 = 0.0433	1225.96	1.5255	1608.4
293.15 K, m2 = 0.0632	1225.37	1.5251	1607.5
293.15 K, m2 = 0.0727	1225.11	1.5249	1607.1
293.15 K, m2 = 0.0952	1224.52	1.5244	1606.1
293.15 K, m2 = 0.1142	1224.09	1.524	1605.5
293.15 K, m2 = 0.137	1223.63	1.5234	1604.5
293.15 K, m2 = 0.1603	1223.19	1.5228	1603.7
293.15 K, m2 = 0.1869	1222.77	1.5223	1602.9
298.15 K, m2 = 0	1223.74	1.5254	1587.1
298.15 K, m2 = 0.0186	1223.07	1.5247	1586.3
298.15 K, m2 = 0.0221	1222.95	1.5246	1586.2
298.15 K, m2 = 0.0358	1222.49	1.5242	1585.7
298.15 K, m2 = 0.0433	1222.25	1.5239	1585.4
298.15 K, m2 = 0.0632	1221.65	1.5233	1584.6
298.15 K, m2 = 0.0727	1221.38	1.523	1584.3
298.15 K, m2 = 0.0952	1220.8	1.5224	1583.6
298.15 K, m2 = 0.1142	1220.33	1.5219	1582.9
298.15 K, m2 = 0.137	1219.88	1.5213	1582.2
298.15 K, m2 = 0.1603	1219.44	1.5208	1581.7
298.15 K, m2 = 0.1869	1219	1.5201	1581
303.15 K, m2 = 0	1220.35	1.5237	1568.7
303.15 K, m2 = 0.0186	1219.67	1.5227	1568.1
303.15 K, m2 = 0.0221	1219.55	1.5226	1568
303.15 K, m2 = 0.0358	1219.09	1.5223	1567.6
303.15 K, m2 = 0.0433	1218.84	1.5221	1567.4
303.15 K, m2 = 0.0632	1218.25	1.5217	1566.8
303.15 K, m2 = 0.0727	1217.98	1.5215	1566.6
303.15 K, m2 = 0.0952	1217.4	1.5211	1566
303.15 K, m2 = 0.1142	1216.96	1.5207	1565.5
303.15 K, m2 = 0.137	1216.51	1.5202	1564.9
303.15 K, m2 = 0.1603	1216.07	1.5197	1564.5
303.15 K, m2 = 0.1869	1215.66	1.5191	1564

c1ccsc1 [thiophene] + CCCCCCCC
Details	mass density, [2] [kg/m3]	refractive index, [1]	speed of sound, [2] [m/s]
288.15 K, m1 = 0.0158	707.297	1.4002	1214.4
288.15 K, m1 = 0.0275	707.523	1.4003	1214.4
288.15 K, m1 = 0.0517	707.987	1.4004	1214.4
288.15 K, m1 = 0.0847	708.616	1.4005	1214.3
288.15 K, m1 = 0.0952	708.817	1.4006	1214.3
288.15 K, m1 = 0.1081	709.062	1.4006	1214.3
288.15 K, m1 = 0.1182	709.253	1.4007	1214.3
288.15 K, m1 = 0.1353	709.577	1.4008	1214.2
288.15 K, m1 = 0.1494	709.844	1.4008	1214.2
288.15 K, m1 = 0.1577	710	1.4009	1214.2
288.15 K, m1 = 0.1729	710.288	1.401	1214.2
288.15 K, m1 = 0.1797	710.414	1.401	1214.2
288.15 K, m1 = 0.1932	710.67	1.4011	1214.2
288.15 K, m1 = 0.2031	710.855	1.4012	1214.1
288.15 K, m1 = 0.3004	712.662	1.4017	1214
288.15 K, m1 = 0.4002	714.496	1.4023	1213.8
288.15 K, m1 = 0.5026	716.351	1.4028	1213.6
288.15 K, m1 = 0.5823	717.77	1.4033	1213.5
293.15 K, m1 = 0.0158	703.296	1.3976	1193.3
293.15 K, m1 = 0.0275	703.52	1.3977	1193.3
293.15 K, m1 = 0.0517	703.981	1.3978	1193.3
293.15 K, m1 = 0.0847	704.605	1.398	1193.2
293.15 K, m1 = 0.0952	704.805	1.3981	1193.2
293.15 K, m1 = 0.1081	705.047	1.3982	1193.2
293.15 K, m1 = 0.1182	705.236	1.3982	1193.2
293.15 K, m1 = 0.1353	705.558	1.3983	1193.2
293.15 K, m1 = 0.1494	705.822	1.3984	1193.2
293.15 K, m1 = 0.1577	705.976	1.3985	1193.2
293.15 K, m1 = 0.1729	706.262	1.3985	1193.2
293.15 K, m1 = 0.1797	706.389	1.3986	1193.1
293.15 K, m1 = 0.1932	706.641	1.3986	1193.1
293.15 K, m1 = 0.2031	706.824	1.3987	1193.1
293.15 K, m1 = 0.3004	708.627	1.3992	1193
293.15 K, m1 = 0.4002	710.432	1.3997	1192.9
293.15 K, m1 = 0.5026	712.275	1.4003	1192.7
293.15 K, m1 = 0.5823	713.683	1.4007	1192.6
298.15 K, m1 = 0.0158	699.223	1.3952	1172.4
298.15 K, m1 = 0.0275	699.447	1.3953	1172.4
298.15 K, m1 = 0.0517	699.907	1.3954	1172.4
298.15 K, m1 = 0.0847	700.53	1.3956	1172.3
298.15 K, m1 = 0.0952	700.728	1.3957	1172.3
298.15 K, m1 = 0.1081	700.97	1.3957	1172.3
298.15 K, m1 = 0.1182	701.159	1.3958	1172.3
298.15 K, m1 = 0.1353	701.48	1.3959	1172.3
298.15 K, m1 = 0.1494	701.743	1.396	1172.3
298.15 K, m1 = 0.1577	701.901	1.3961	1172.3
298.15 K, m1 = 0.1729	702.182	1.3961	1172.3
298.15 K, m1 = 0.1797	702.312	1.3962	1172.2
298.15 K, m1 = 0.1932	702.561	1.3962	1172.2
298.15 K, m1 = 0.2031	702.742	1.3963	1172.2
298.15 K, m1 = 0.3004	704.545	1.3968	1172.1
298.15 K, m1 = 0.4002	706.341	1.3973	1171.9
298.15 K, m1 = 0.5026	708.178	1.3978	1171.8
298.15 K, m1 = 0.5823	709.577	1.3982	1171.6
303.15 K, m1 = 0.0158	695.177	1.3926	1151.5
303.15 K, m1 = 0.0275	695.398	1.3927	1151.5
303.15 K, m1 = 0.0517	695.856	1.3928	1151.4
303.15 K, m1 = 0.0847	696.474	1.393	1151.4
303.15 K, m1 = 0.0952	696.672	1.393	1151.4
303.15 K, m1 = 0.1081	696.912	1.3931	1151.4
303.15 K, m1 = 0.1182	697.101	1.3932	1151.4
303.15 K, m1 = 0.1353	697.419	1.3933	1151.3
303.15 K, m1 = 0.1494	697.682	1.3934	1151.3
303.15 K, m1 = 0.1577	697.834	1.3934	1151.3
303.15 K, m1 = 0.1729	698.118	1.3935	1151.3
303.15 K, m1 = 0.1797	698.244	1.3935	1151.3
303.15 K, m1 = 0.1932	698.492	1.3936	1151.3
303.15 K, m1 = 0.2031	698.675	1.3936	1151.3
303.15 K, m1 = 0.3004	700.46	1.3941	1151.1
303.15 K, m1 = 0.4002	702.25	1.3947	1151
303.15 K, m1 = 0.5026	704.068	1.3953	1150.8
303.15 K, m1 = 0.5823	705.455	1.3957	1150.7
